Experimental data taken from patent US8017735B2, “Anti-IGFR1 antibody therapeutic combinations” (Schering Corporation, priority 2003, dated 2011).
Several values for one entry are separate records, joined by “and”; a condition that tells them apart may be missing. Equal values may be shown once.

Columns and labels:
H322 NSCLC cells = assay: Proliferation assay (Cell Titer-Glo) with anti-IGFR1 antibody and a chemotherapeutic agent, H322 NSCLC cells; assay type: cell-based, human; settings: H322, Day4, replicates
Method: The ability of cells in culture to proliferate when exposed to varying concentrations of the 19D12/15H12 wild-type or 19D12/15H12 LCF/HCA anti-IGFR1 antibody and either paclitaxel, gefitinib, lonafarnib 4-hydroxy tamoxifen or doxorubicin was evaluated in this example.
Cell Preparation. […] The cells were trypsinized, counted and resuspended at a concentration of 25000 cells/ml in 10% HI-FBS (heat-inactivated fetal bovine serum) RPMI medium containing NEAA (non-essential amino acids), L-Glu, MEM Vitamins and PS. 100 ul of cell suspension (2500 cells) was added to each well of a BD Falcon 96 well black, clear bottom TC treated plate. The cells were allowed to attach and spread overnight at 37° C. The 10% RPMI solution was replaced with 100 μl RPMI containing 2% HI-FBS containing NEAA, L-Glu, MEM Vitamins and PS.
Solution Preparation. All assay reagents were prepared in RPMI containing 2% HI-FBS at 20× concentration and serial diluted for a total of 10 test concentrations per treatment. Every test point was prepared in triplicate on separate assay plates.
Reagent 1 and 19D12/15H12 or 19D12/15H12 LCF/HCA were set up individually as dose responses as well as in combination with each other. Cell proliferation was measured on Day4.
Assay. Cell proliferation was measured using the Promega Cell Titer-Glo Luminescent Cell Viability Assay (Promega Corp.; Madison, Wis.). This assay provided a method for determining the number of viable cells in culture based on quantitation of ATP in the culture, which indicates the presence of metabolically active cells.
The assay reagents and assay plates were equilibrated to room temperature and prepared immediately before addition to the assay plates. One volume of assay reagent was added to each well of the assay plate and shaken on an orbital platform for at least ten minutes to allow for equilibration of the ATP reaction and to ensure total lysis of all cells in the assay plate. […] Luminescence was detected on Wallac 420 Plate Reader with stacker.
The units in the tables (proliferation index) are arbitrary and are proportional to the number of viable cells observed in the culture under each respective condition.
In Tables 2-6, “ug” indicates micrograms and “uM” indicates micromolar.

H322 human NSCLC cells = assay: In vivo tumor inhibition assay, NSCLC xenograft model H322; set-up: species or system nude mice; settings: for Growth: Day 0 to 31
Method: Five million H322 human NSCLC cells in Matrigel were inoculated subcutaneously into nude mice. Anti-IGFR antibody 19D12 and/or paclitaxel treatment was initiated when the tumor size reached ˜105-115 mm^3 at day 0. Both 19D12 and paclitaxel were dosed twice per week. Anti-IGFR antibody 19D12 was dosed at 0.5 mg per mouse. Paclitaxel was at 15 mpk. Ten animals per group. Tumor volumes were measured by Labcat.

[1] = Day 0 (treatment start), H322 xenograft in nude mice
[2] = 19D12 0.5 mg per mouse and/or Taxol 15 mpk, twice per week
[3] = Day 31, 19D12 0.5 mg per mouse and/or Taxol 15 mpk, twice per week

Molecule | proliferation index (H322 NSCLC cells; Taxol alone 0.00256 ng/mL) | proliferation index (H322 NSCLC cells; Taxol alone 0.064 ng/mL) | proliferation index (H322 NSCLC cells; Taxol alone 8 ng/mL) | proliferation index (H322 NSCLC cells; Taxol alone 40 ng/mL) | proliferation index (H322 NSCLC cells; Taxol alone 200 ng/mL) | proliferation index (H322 NSCLC cells; Taxol alone 1000 ng/mL) | tumor volume (H322 human NSCLC cells; [1]) | Growth (H322 human NSCLC cells; [2]) | % inhibition (tumor growth inhibition) (H322 human NSCLC cells; [3]) | tumor volume (H322 human NSCLC cells; [3])
CC(=O)O[C@H]1C(=O)[C@@]2(C)[C@H]([C@H](OC(=O)c3ccccc3)[C@]3(O)C[C@H](OC(=O)[C@H](O)[C@@H](NC(=O)c4ccccc4)c4ccccc4)C(C)=C1C3(C)C)[C@]1(OC(C)=O)CO[C@@H]1C[C@@H]2O [Taxol, paclitaxel] | 72498 and 78070 and 89290 and 71662 and 72122 and 77618 and 81720 and 80172 and 76744 | 75374 and 83082 and 74926 and 73584 and 75710 and 75356 and 87602 and 75690 and 76350 | 38354 and 33654 and 34598 and 31556 and 36038 and 35906 and 34498 and 53256 and 41418 | 22160 and 25204 and 22624 and 22020 and 22956 and 24152 and 23908 and 24834 and 22462 | 19372 and 23650 and 23668 and 23164 and 23482 and 24314 and 25752 and 23960 and 21420 | 20932 and 26882 and 24582 and 23884 and 23712 and 25890 and 24522 and 24842 and 20306 | 109.54 mm3 | 104.71 | 52% | 214.25 mm3
19D12: Anti-IGFR antibody 19D12 (antibody, listed as Homo sapiens, V domains shown) VL: MSPSQLIGFLLLWVPASRGEIVLTQSPGTLSVSPGERATLSCRASQSIGSSLHWYQQKPGQAPRLLIKYASQSLSGIPDRFSGSGSGTDFTLTISRLEPEDFAVYYCHQSSRLPHTFGQGTKVEIKRT VH: MEFGLSWVFLVAILKGVQCEVQLVQSGGGLVKPGGSLRLSCAASGFTFSSFAMHWVRQAPGKGLEWISVIDTRGATYYADSVKGRFTISRDNAKNSLYLQMNSLRAEDTAVYYCARLGNFYYGMDVWGQGTTVTVSS |  |  |  |  |  |  | 106.57 mm3 | 66.45 | 75.50% | 173.02 mm3
